# In patent publication US20150157633A1, “WNT PROTEIN SIGNALLING INHIBITORS” (The Board of Regents of the University of Texas System, priority 2012, published 2015):
# “Also recorded” adds a separate entry of the source.
# How the values were obtained:
# Porcn = molecular target: T1, Porcn (Homo sapiens, UniProt Q9H237); assay: Click chemistry labeling of Wnt3A-Fc with alkynyl-PA (Wnt fatty acylation); type: cell-based
# T1 construct: endogenous in cells; host or cells: HEK293
# T1 sequence (Q9H237 1-461): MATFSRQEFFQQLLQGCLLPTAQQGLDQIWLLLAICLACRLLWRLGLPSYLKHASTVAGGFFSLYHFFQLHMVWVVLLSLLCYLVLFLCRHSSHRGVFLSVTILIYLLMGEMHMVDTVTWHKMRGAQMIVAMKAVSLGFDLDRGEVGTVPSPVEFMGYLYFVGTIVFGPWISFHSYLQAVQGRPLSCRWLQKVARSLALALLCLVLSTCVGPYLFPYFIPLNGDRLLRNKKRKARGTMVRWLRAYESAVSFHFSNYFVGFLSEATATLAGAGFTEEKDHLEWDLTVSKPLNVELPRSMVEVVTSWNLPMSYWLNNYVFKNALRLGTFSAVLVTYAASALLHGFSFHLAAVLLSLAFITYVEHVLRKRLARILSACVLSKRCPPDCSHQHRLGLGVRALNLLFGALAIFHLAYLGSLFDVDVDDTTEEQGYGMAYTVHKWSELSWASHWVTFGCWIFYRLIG
# Description: Click chemistry. HEK293 cells transiently transfected with the Wnt3A-Fc DNA expression construct were treated with C16 ω-alkynyl fatty acid (see Reagents; 100 μM final concentration) for six hours as previously described (9) in the presence or DMSO or various IWP compounds. C16 ω-alkynyl fatty acid-labeled Wnt3A-Fc protein isolated from cell lysate using Protein A sepharose was then subjected to a copper catalyzed alkyne-azide cycloaddition with biotin-azide with protein immobilized on the sepharose. The biotinylated Wnt protein run on SDS PAGE was detected using HRP conjugated streptavidin.
# HHAT = HHAT (Homo sapiens, UniProt Q5VTY9); assay: Click chemistry labeling of Hh protein with alkynyl-PA (Hh fatty acylation); type: cell-based
# Chain of HHAT (Q5VTY9 whole entry, species assumed): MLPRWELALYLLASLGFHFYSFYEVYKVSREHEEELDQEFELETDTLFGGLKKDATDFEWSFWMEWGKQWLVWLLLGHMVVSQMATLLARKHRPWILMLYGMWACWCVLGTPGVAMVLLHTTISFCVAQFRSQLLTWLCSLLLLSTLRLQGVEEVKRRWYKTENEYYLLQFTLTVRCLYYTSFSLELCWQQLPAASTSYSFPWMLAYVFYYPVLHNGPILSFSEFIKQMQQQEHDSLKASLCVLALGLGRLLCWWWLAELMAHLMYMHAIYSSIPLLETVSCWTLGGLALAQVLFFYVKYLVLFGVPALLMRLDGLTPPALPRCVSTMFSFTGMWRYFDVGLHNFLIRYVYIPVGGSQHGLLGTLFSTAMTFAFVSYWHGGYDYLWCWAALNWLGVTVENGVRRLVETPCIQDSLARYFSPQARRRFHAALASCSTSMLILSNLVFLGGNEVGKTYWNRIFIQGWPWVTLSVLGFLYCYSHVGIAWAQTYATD
# Wnt1-GFP = assay: Organotypic embryonic kidney culture from Wnt1-GFP mice; type: cell-based
# Description: Organotypic kidney culture. E11.5 urogenital systems were removed and bisected in sterile phosphate buffered saline (PBS) and then the individual halves were cultured in […] of media at the air-media interface on 24-well tissue culture treated, 6.5 mm diameter, […] pore size Transwell filters (Corning, catalog no. 3422). The media (DMEM with 10% fetal bovine serum (FBS) and Pen/Strep) was supplemented with either DMSO or IWP2 and replaced with fresh media every 12, 24, or 48 hours. All treatments were repeated at least three times with a minimum of six individual kidneys from six distinct embryos each time.
# Wnt-GL fusion proteins = assay: Wnt-Gaussia luciferase secretion assay in HEK293 cells; type: cell-based; details: HEK293 cells expressing one of several Wnt-GL proteins
# Description: (§1) Luciferase reporter assays. Wnt-Gaussia luciferase secretion and SuperTopFlash assays were conducted as described using a Dual Luciferase kit (Promega) (Chen et al., 2009).
# Wnt5A = assay: Wnt5A-dependent antagonism of Wnt/β-catenin signaling, STF reporter in HEK293 cells; type: cell-based; details: Wnt3A-containing conditioned medium
# Description: as §1
# Jnk = assay: Wnt7B-induced Jnk phosphorylation in L fibroblasts; type: cell-based, Mouse; details: L fibroblasts transfected with Wnt7B DNA
# Dv12 = Dv12 phosphorylation in HeLa cells (Western blot); type: cell-based; details: cell-autonomous Wnt signaling
# [1] = test system: general protein secretion; details: previously demonstrated (Chen et al., 2009); cited from earlier work
# Hh = details: previously demonstrated (Chen et al., 2009); cited from earlier work
# Notch = details: previously demonstrated (Chen et al., 2009); cited from earlier work
# Wnt/β-catenin pathway [2] = assay: Wnt-responsive EGFP reporter in transgenic zebrafish embryos (7XTCF-siam:EGFP); type: in vivo; details: for Wnt signaling activity (EGFP reporter): embryos treated from 4 hpf for 20 hours, compound in medium
# Wnt/β-catenin pathway [3] = assay: Wnt reporter GFP in cultured zebrafish primary embryonic fibroblasts; type: cell-based; details: fibroblasts from 6 hpf embryos, GFP visualized 20 hrs later
# Text: Zebrafish embryonic cell cultures were initiated from embryos at the shield stage (6 hpf). The embryos were dissociated in trypsin/EDTA solution with gentle homogenization and pipetting. After centrifugation, the collected cells were resuspended in F12/L15/DMEM medium and placed into a 24-well tissue culture plate.
# tailfin regeneration = assay: Caudal fin regeneration assay in zebrafish larvae; type: in vivo; details: larvae resected at 3 days post fertilization, IWP12 50 μM, 4 days
# [4] = test system: Wnt-planar cell polarity (Wnt/PCP) signaling; assay: Convergence and extension gastrulation movements, whole mount in situ hybridization; type: in vivo, zebrafish; details: embryos treated starting 4 hpf
# Engrailed (eng1a) = assay: eng1a expression at the midbrain/hindbrain boundary, in situ hybridization; type: in vivo, zebrafish; details: embryos (4 hpf) treated for 20 hours
# fin regrowth = assay: Resumption of caudal fin regrowth after removal of compound; type: in vivo, zebrafish; details: resected caudal fins, water containing IWR-1 for 7 d, then removal
# Text: Achieving transient repression of pathological Wnt response without incurring permanent damage to normal stem cell function is a key anticancer therapeutic goal.
# Axin2 = Axin2 expression in DLD-1 cells; type: cell-based; details: exposure for 2 h
# Text: Aberrant transcriptional induction of Wnt/β-catenin target genes is typically observed in CRC cells that harbor loss-of-function mutations in the APC tumor suppressor.
compound,measurement,setting,value
Cc1ccc2nc(NC(=O)CSc3nc4c(c(=O)n3-c3ccccc3)SCC4)sc2c1 [IWP2],Wnt protein acylation,Porcn,disrupts Wnt protein acylation
same,fatty acylation of Hh mediated by Hhat,HHAT,does not block fatty acylation
same,tubule induction,"Wnt1-GFP; E11.5 embryonic kidney culture, Wnt/β-catenin-dependent process",disrupt tubule induction
same,accumulation of Wnt1 on the cell surface,"Wnt1-GFP; E11.5 embryonic kidney, treated in vitro for 24 hours",block the accumulation of Wnt1 on the cell surface
same,accumulation of Wnt proteins in the cell culture medium,Wnt-GL fusion proteins,abrogated the accumulation of Wnt proteins in the cell culture medium
same,production of non-canonical Wnt (Wnt5A),Wnt5A,inhibits the production of a non-canonical Wnt (Wnt5A)
same,activation (phosphorylation) of Jnk,Jnk,disrupted
same,Dv12 phosphorylation,Dv12,inhibits Dv12 phosphorylation
same,general protein secretion,[1],does not block
same,cellular responses mediated by Hh,Hh,does not block
same,cellular responses mediated by Notch,Notch,does not block
Cc1ccc2nc(NC(=O)CSc3nc4c(c(=O)n3C)SC(C)C4)sc2c1 (stereo not drawn) [IWP12],excess of IWP12 equivalent in activity to IWR1,"Wnt/β-catenin pathway [2]; EGFP reporter fluorescence, posterior region",approximately 10 fold
same,Wnt signaling activity (EGFP reporter),Wnt/β-catenin pathway [2],loss of Wnt signaling activity; also recorded: Dose-dependent effects
same,posterior body morphogenesis,Wnt/β-catenin pathway [2]; zebrafish embryos,severe effect on posterior body morphogenesis
same,Wnt/β-catenin pathway response (GFP),Wnt/β-catenin pathway [3],loss of Wnt/β-catenin pathway responses
same,tailfin regeneration following resection,tailfin regeneration,block juvenile fish tailfin regeneration
same,convergence and extension gastrulation movements,[4],block convergence and extension gastrulation movements
same,expression of MHB marker Engrailed (eng1a),Engrailed (eng1a),decreased expression of the MHB marker Engrailed (eng1a)
O=C(Nc1cccc2cccnc12)c1ccc(N2C(=O)[C@@H]3[C@H](C2=O)[C@@H]2C=C[C@H]3C2)cc1 [IWR1],Wnt signaling activity (EGFP reporter),Wnt/β-catenin pathway [2],Dose-dependent effects
same,fin tissue regeneration after chemical removal,fin regrowth,able to regenerate tissue to nearly normal levels after chemical removal
same,expression of Axin2,Axin2,a decrease in the expression of Axin2
